Measured values: patent publication US20240050329A1, “METHODS FOR COSMETIC SKIN REMODELING” (ELC Management LLC, priority 2019, published 2024)
Values joined by “and” are separate entries in the source; they are usually repeats but may differ in a detail not shown here. Equal entries are not always repeated. Where two headings read alike, the source gives them in different places. Where a SMILES comes first, the peptide text is derived from it.

Key:
[1] = Solution-gel (sol-gel) transition of each peptide; format: physicochemical
Method: In compositions, the influence of pH of 3 to 9, ionic strength of about 0 M to about 5 M salt concentration (for example, ZnCl2, NaCl etc.) via addition of any monovalent and/or divalent cation or temperature plays a critical role in preventing the self-assembly in formulation. In compositions, the pH maybe in the range of about 3 to 9. In some compositions, the amount of peptide is in a range of about 0.001% to 30% by weight and the temperature of the composition may be in a range of about 19° C. to 42° C.

[2] = test system: ex vivo skin; test: pH dependent peptide self-assembly within intact ex vivo skin (click histology); details: propargylglycine versions of the peptides, 0.6 mg/mL, topical, pH 4 to 9
Method: To aid in visualization of the effects of pH and salinity on peptide self-assembly within tissue, peptides were labeled via F-moc chemistry with propargylglycine. Biopsies (12-mm) of abdominal skin explants were isolated, maintained, as stated in example 4, and were treated topically with the propargylglycine labeled peptides ([…]), twice a day for 5 days. The propargylglycine labeled peptides included A6K, IEIK-13, KLD-12, RADA-16, IGVPAG, and VGVPAG.
To determine how pH and salinity influences peptide assembly in the skin, the propargylglycine labeled peptides were prepared at various pH or salinity pH 3 to 9 or containing a salt content of 0.1-3.0%, respectively. The skins were fixed, cryoprotected, cryosectioned (8 μm) and stored at −20° C. until Copper(I)-Catalyzed Alkyne-Azide Cycloaddition (CuAAC), or click chemistry, was performed to detect peptide assembly. Representative results are shown herein.
The sections were washed, mounted with Fluoromount-G plus DAPI, and were imaged using the Zeiss Axio Observer Z1 Fluorescence Motorized Microscope.
Click chemistry is a technique that uses two biologically inert functional groups, an alkyne and an azide, which form a triazole in the presence of Copper(I). The alkyne on the terminus of the peptide negligibly impacts the aspects of molecule that will impact the penetration of the peptide in tissue (i.e. molecular weight, log P, isoelectric point, and self-assembly) allowing for the peptide to penetrate based on its inherent properties. Once the alkyne-peptide is delivered to the tissue, the sample is fixed, and “stained” with an azido-fluorophore. […] This click histology protocol allows for the peptide of interest to be selectively detected via fluorescence microscopy in the presence of endogenous peptides and/or proteins. […]

[3] = test system: skin layers; test: Triggers of self-assembly within the skin layers
[4] = test system: existing elastin fibers; test: Temperature dependent self-assembly of ELPs in decellularized ex vivo dermises (Elastin van Gieson staining, elastin fiber density); details: for Elastin fiber integrated density (FIG. 1B): 100 μg/mL, compared to PBS of the same temperature; for Elastin van Gieson staining signal (FIG. 1A): decellularized dermises submerged in 100 μg/mL peptide, five days, 4, 37 or 42° C., compared to PBS
Method: The generation of elastin fibers involves the self-assembly process of coacervation causing an accumulation of hydrophobic tropoelastin molecules prior to being cross-linked at lysines to generate mature elastin fibers. Elastin-like peptides (ELPs) undergo temperature-driven conformational change upon heat referred to as inverse temperature transition (ITT).
Following decellularization, the skins, here after referred to as dermises, were washed three times in PBS buffer (1X) for 2 hours each. The decellularized dermises were submerged in either PBS, 100 μg/mL Pal-VGVAPG, or Ace-IGVAPG, for five days, with daily solution changes. Three ex vivo dermises for each treatment were incubated at 4° C., 37° C., or 42° C. The decellularized dermises were fixed overnight in 10% formalin, paraffin embedded and sections at 8 μm. H&E and Elastin van Gieson staining were performed to confirm decellularization and to visualize elastin fibers, respectively. Elastin fiber density quantification was performed via thresholding the elastin fibers using NIH ImageJ software and measurements were recorded.
H&E staining confirmed that the tissues were successfully decellularized (data not shown). […] FIG. 1A indicates the representative images of Elastin van Gieson stained decellularized dermises which were incubated with Pal-VGVAPG and Ace-IGVAPG at different temperatures while concentration was kept constant (100 μg/mL). Elastin fibers are stained black at a scale bar of 50 μm.
Statistical significance of differences between means was performed using two-way ANOVA followed by Tukey's multiple comparisons test. Error bars represent standard error of the mean (SEM). All analyses were performed using Prism 8 software (GraphPad, San Diego, CA, U.S.A.).

[5] = test system: pre-existing elastin fibers; test: Concentration driven self-assembly in ex vivo skin treated topically (Elastin van Gieson stain); details: topical
Method: Self-assembly of biomolecules is dependent on a critical self-assembly concentration, where self-assembly biomolecules remain as monomers below a critical concentration and assemble above a specific concentration threshold.
Biopsies (12-mm) were treated topically with various concentrations of Ace-IGVAPG or Pal-VGVAPG (12.5, 25, 50 μg/mL) while being maintained in DMEM containing 10% FBS and 1% penicillin/streptomycin/amphotericin B. The skins were formalin fixed, paraffin embedded, sectioned at 8 μm and stain for elastin with the Elastin van Gieson stain.

[6] = test system: ex vivo skin biopsies; test: Skin elasticity (percent recovery) of ex vivo skin biopsies, TA.XT Plus Texture Analyzer; details: 25 μg/mL, 24 h topical treatment
Method: Following 24 hours, the TA.XT Plus Texture Analyzer was used to indent ex vivo skin with a 7-mm cylindrical probe with 40% strain and a withdrawal rate of 0.1 mm/s. The TA.XT Plus software generated a curve representative of the force (g) applied to the probe by the biopsy overtime (sec) and the areas under the curve for the duration of indentation and the withdrawal time of the probe were used to calculate the percent recovery.
A purely elastic material has a percent recovery of 100%. Since skin is viscoelastic, its recovery will never be equal to a pure elastic material, ex vivo skin, for example, has a percent recovery of 25% to 35%.

C[C@H](N)C(=O)N[C@@H](C)C(=O)N[C@@H](C)C(=O)N[C@@H](C)C(=O)N[C@@H](C)C(=O)N[C@@H](C)C(=O)N[C@@H](CCCCN)C(N)=O [AAAAAAK, A6K] (H-AAAAAAK-NH2)
C0 for sol-gel transition by weight of the composition (w/w) [1]: greater than 2%

CC(C)C[C@H](NC(=O)[C@H](CC(=O)O)NC(=O)[C@H](CC(C)C)NC(=O)[C@H](CCCCN)NC(=O)[C@H](CC(C)C)NC(=O)[C@H](CC(=O)O)NC(=O)[C@H](CC(C)C)NC(=O)[C@H](CCCCN)NC(=O)[C@H](CC(C)C)NC(=O)[C@H](CC(=O)O)NC(=O)[C@H](CC(C)C)NC(=O)[C@@H](N)CCCCN)C(N)=O [KLDLKLDLKLDL, KLD-12] (H-KLDLKLDLKLDL-NH2)
Sol-gel transition pH [1]: 5
C0 for sol-gel transition by weight of the composition (w/w) ([1]; w/w of the composition): 2%
pH level at which peptide self-assembly was observed within the lower layers of the skin [2]: 6

CCCCCCCCCCCCCCCC(=O)N[C@@H](CCCCN)C(=O)N[C@H](C(=O)N[C@H](C(=O)N[C@@H](CCCCN)C(=O)N[C@@H](CO)C(=O)O)[C@@H](C)O)[C@@H](C)O [PAL-KTTKS, Palmitoyl pentapeptide-4] (HELM PEPTIDE1{[CCCCCCCCCCCCCCCC(=O)[*:2]].K.T.T.K.S}$$$$V2.0)
Sol-gel transition pH [1]: 5
Temperature trigger ([1]; sol-gel transition): YES
C0 for sol-gel transition by weight of the composition (w/w) ([1]; w/w of the composition): 0.5%
Concentration trigger of self-assembly within the skin layers [3]: ≥ 0.5 % w/w
Temperature trigger of self-assembly within the skin layers [3]: 37 °C
pH trigger of self-assembly within the skin layers [3]: 5

CCCCCCCCCCCCCCCC(=O)N[C@H](C(=O)NCC(=O)N[C@H](C(=O)N[C@@H](C)C(=O)N1CCC[C@H]1C(=O)NCC(=O)O)C(C)C)C(C)C [PAL-VGVAPG, Palmitoyl hexapeptide] (HELM PEPTIDE1{[CCCCCCCCCCCCCCCC(=O)[*:2]].V.G.V.A.P.G}$$$$V2.0)
Sol-gel transition pH [1]: 7
Ionic strength trigger ([1]; sol-gel transition): YES
Temperature trigger ([1]; sol-gel transition): YES
C0 for sol-gel transition by weight of the composition (w/w) ([1]; w/w of the composition): 1%
Elastin fiber integrated density (FIG. 1B) ([4]; 37° C.): significant increase
Elastin fiber integrated density (FIG. 1B) ([4]; 42° C.): significant increase
Elastin van Gieson staining signal (FIG. 1A) [4]: increase in signal as temperature increased
Elastin intensity (Elastin van Gieson stain, FIG. 2) ([5]; 12.5 μg/mL): increased
Elastin intensity (Elastin van Gieson stain, FIG. 2) ([5]; 25 μg/mL): increased
Elastin intensity (Elastin van Gieson stain, FIG. 2) ([5]; 50 μg/mL): increased
pH level at which peptide self-assembly was observed within the lower layers of the skin [2]: 6 and 8
Concentration trigger of self-assembly within the skin layers [3]: > 0.01 % w/w
Temperature trigger of self-assembly within the skin layers [3]: 37 °C
pH trigger of self-assembly within the skin layers [3]: 7

CCCCCCCCCCCCCCCC(=O)NCC(=O)N[C@@H](Cc1cnc[nH]1)C(=O)O [PAL-GH, Palmityl dipeptide] (HELM PEPTIDE1{[CCCCCCCCCCCCCCCC(=O)[*:2]].G.H}$$$$V2.0)
C0 for sol-gel transition by weight of the composition (w/w) [1]: 1.25%
Ionic strength trigger [1]: YES
Sol-gel transition pH [1]: 5
Temperature trigger [1]: YES

CC[C@H](C)[C@H](NC(C)=O)C(=O)NCC(=O)N[C@H](C(=O)N[C@H](C)C(=O)N1CCC[C@H]1C(=O)NCC(=O)O)C(C)C [ACE-IGVAPG, Elastin hexapeptide] (HELM PEPTIDE1{[ac].I.G.V.[dA].P.G}$$$$V2.0)
Elastin fiber integrated density (FIG. 1B) ([4]; 42° C.): significant increase
Elastin van Gieson staining signal (FIG. 1A) [4]: highest increase at 37 °C
Elastin intensity (Elastin van Gieson stain, FIG. 2) ([5]; 25 μg/mL): increase
Elastin intensity (Elastin van Gieson stain, FIG. 2) ([5]; 50 μg/mL): increase
pH level at which peptide self-assembly was observed within the lower layers of the skin [2]: 5 and 7
Greater recovery than non-treated samples [6]: about 25%
Percent recovery compared to non-treated controls (FIG. 6B) ([6]; p=0.0056): significantly higher

C[C@H](NC(=O)[C@H](CC(=O)O)NC(=O)[C@H](C)NC(=O)[C@H](CCCNC(=N)N)NC(=O)[C@H](C)NC(=O)[C@H](CC(=O)O)NC(=O)[C@H](C)NC(=O)[C@H](CCCNC(=N)N)NC(=O)[C@H](C)NC(=O)[C@H](CC(=O)O)NC(=O)[C@H](C)NC(=O)[C@H](CCCNC(=N)N)NC(=O)[C@H](C)NC(=O)[C@H](CC(=O)O)NC(=O)[C@H](C)NC(=O)[C@@H](N)CCCNC(=N)N)C(=O)O [RADARADARADARADA, RADA 16]
Sol-gel transition pH [1]: 7
Ionic strength trigger ([1]; sol-gel transition): YES
C0 for sol-gel transition by weight of the composition (w/w) ([1]; w/w of the composition): 2%

CC[C@H](C)[C@H](N)C(=O)N[C@@H](CCC(=O)O)C(=O)N[C@H](C(=O)N[C@@H](CCCCN)C(=O)N[C@H](C(=O)N[C@@H](CCC(=O)O)C(=O)N[C@H](C(=O)N[C@@H](CCCCN)C(=O)N[C@H](C(=O)N[C@@H](CCC(=O)O)C(=O)N[C@H](C(=O)N[C@@H](CCCCN)C(=O)N[C@H](C(N)=O)[C@@H](C)CC)[C@@H](C)CC)[C@@H](C)CC)[C@@H](C)CC)[C@@H](C)CC)[C@@H](C)CC [IEIKIEIKIEIKI, IEK-13]
Sol-gel transition pH [1]: 3
Temperature trigger ([1]; sol-gel transition): YES
C0 for sol-gel transition by weight of the composition (w/w) ([1]; w/w of the composition): 2%
